# According to ChEMBL document CHEMBL1687831 (Antimicrob Agents Chemother, 2011):
# What was measured:
# [1] = Inhibition of beta-lactamase SHV1
# [2] = Inhibition of beta-lactamase AmpC expressed in Escherichia coli
# [3] = Inhibition of beta-lactamase CTX-M-9 expressed in Escherichia coli BL21(DE3)
# [4] = Inhibition of beta-lactamase TEM1 expressed in Escherichia coli JM109
# [5] = Inhibition of acinetobacter-derived cephalosporinase
Ki [1] [nM],Ki [5] [nM],Structure (SMILES),Ki [2] [nM],Ki [3] [nM],Ki [4] [nM]
9800,–,CCN1CCN(C(=O)N[C@H](Cc2ccc(O)cc2)C(=O)NCB2OC(C)(C)C(C)(C)O2)C(=O)C1=O,–,–,–
–,310,CC(C)(O/N=C(\C(=O)NCB(O)O)c1csc(N)n1)C(=O)O [CEFTAZIDIME BATSI],20,15,390
17000,600,CCN1CCN(C(=O)N[C@@H](C(=O)NCB(O)O)c2ccc(O)cc2)C(=O)C1=O [CEFOPERAZONE BATSI],–,–,–
